Measurements taken from ChEMBL document CHEMBL5104093, “A comprehensive review on β-lapachone: Mechanisms, structural modifications, and therapeutic potentials” (Eur J Med Chem, 2021).
Values after ≈ are worked out from the molar mass of the structure shown.

Each compound was assayed on Mycobacterium tuberculosis (assay: Antimycobacterial activity against rifampicin resistant Mycobacterium tuberculosis ATCC 35822 assessed as bacterial growth inhibition incubated for 7 days by resazurin dye based microtiter assay). Conditions: ATCC 35822, 168 h, time 7 day.
Format: functional

Row | Compound | MIC
1 | CC1(C)CCc2c(c3ccccc3c3nc(-c4ccc([N+](=O)[O-])cc4)[nH]c23)O1 | 1.56 µg/mL (≈ 4.18 µM)

What follows are compounds tested on Mycobacterium tuberculosis (assay: Antimycobacterial activity against rifampicin resistant Mycobacterium tuberculosis ATCC 35338 assessed as bacterial growth inhibition incubated for 7 days by resazurin dye based microtiter assay). Conditions: ATCC 35338, 168 h, time 7 day.
Format: functional

Row | Compound | MIC
2 | CC1(C)CCc2c(c3ccccc3c3nc(-c4cccc(Br)c4)[nH]c23)O1 | 1.56 µg/mL (≈ 3.83 µM)
3 | CC1(C)CCc2c(c3ccccc3c3nc(-c4ccc([N+](=O)[O-])cc4)[nH]c23)O1 | > 100 µg/mL
4 | CC1(C)CCc2c(c3ccccc3c3nc(-c4cccc(F)c4)[nH]c23)O1 | 1.56 µg/mL (≈ 4.5 µM)
5 | COc1ccccc1-c1nc2c([nH]1)c1c(c3ccccc32)OC(C)(C)CC1 | 1.56 µg/mL (≈ 4.35 µM)
6 | CC1(C)Oc2c(c3nc4ccccc4nc3c3ccccc23)C=C1Br | < 6.25 µg/mL
7 | C=CCC1Cc2c(c3ccccc3c3nc4ccccc4nc23)OC1(C)C (stereo unspecified) | 0.78 µg/mL (≈ 2.2 µM)
8 | CC1(C)CCc2c(c3ccccc3c3nc(-c4cccc(C(F)(F)F)c4)[nH]c23)O1 | 1.56 µg/mL (≈ 3.94 µM)
9 | Cc1ccc(-c2nc3c([nH]2)c2c(c4ccccc43)OC(C)(C)CC2)cc1 | 6.25 µg/mL (≈ 18.3 µM)
10 | CC1CCC2C(C1)c1c(c3ccccc3c3nc4ccccc4nc13)OC2(C)C (stereo unspecified) | < 6.25 µg/mL
11 | Cc1ccccc1-c1nc2c([nH]1)c1c(c3ccccc32)OC(C)(C)CC1 | 1.56 µg/mL (≈ 4.56 µM)
